Measurements: ChEMBL document CHEMBL5352480, “Discovery of potent 1,1-diarylthiogalactoside glycomimetic inhibitors of Pseudomonas aeruginosa LecA with antibiofilm properties” (Eur J Med Chem, 2023)

Legend:
[1] = target: T1, PA-I galactophilic lectin (Pseudomonas aeruginosa (strain ATCC 15692 / PAO1 / 1C / PRS 101 / LMG12228), UniProt Q05097); assay: Binding affinity to Pseudomonas aeruginosa LecA assessed as dissociation constant by isothermal titration calorimetry
T1 sequence (Q05097 whole entry): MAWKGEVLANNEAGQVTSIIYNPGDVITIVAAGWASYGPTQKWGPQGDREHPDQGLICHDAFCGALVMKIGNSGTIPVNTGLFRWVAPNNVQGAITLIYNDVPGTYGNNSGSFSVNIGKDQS

[2] = target: T1, PA-I galactophilic lectin; assay: Binding affinity to Pseudomonas aeruginosa LecA expressed in Escherichia coli BL21 (DE3) cells assessed as dissociation constant by isothermal titration calorimetry
[3] = target: T2, PA-I galactophilic lectin (Pseudomonas aeruginosa (strain ATCC 15692 / PAO1 / 1C / PRS 101 / LMG12228)) (UniProt Q05097); assay: Binding affinity to Pseudomonas aeruginosa LecA expressed in Escherichia coli BL21 (DE3) cells assessed as gibbs free energy change by isothermal titration calorimetry
T2 sequence (whole entry): T1 sequence (Q05097 whole entry)

[4] = target: T2, PA-I galactophilic lectin (Pseudomonas aeruginosa (strain ATCC 15692 / PAO1 / 1C / PRS 101 / LMG12228)); assay: Binding affinity to Pseudomonas aeruginosa LecA expressed in Escherichia coli BL21 (DE3) cells assessed as change in enthalpy by isothermal titration calorimetry
[5] = target: T2, PA-I galactophilic lectin (Pseudomonas aeruginosa (strain ATCC 15692 / PAO1 / 1C / PRS 101 / LMG12228)); assay: Binding affinity to Pseudomonas aeruginosa LecA expressed in Escherichia coli BL21 (DE3) cells assessed as change in entropy by isothermal titration calorimetry
Pseudomonas aeruginosa [6] = assay: Antibiofilm activity against Pseudomonas aeruginosa PA01 (CIP 104116) assessed as inhibition of biofilm formation at 5 mM measured after 2 to 24 hrs relative to control; assay type: functional; parameters: scale not given: the % may be the effect or the level left; details: time 2-24 hrs
Pseudomonas aeruginosa [7] = assay: Antibiofilm activity against Pseudomonas aeruginosa PA01 (CIP 104116) assessed as log reduction of biofilm formation at 5 mM measured after 2 to 24 hrs; assay type: functional; details: time 2-24 hrs
MRC5 [8] = assay: Cytotoxicity against human MRC5 cells assessed as reduction in cell viability at 1.25 mM measured after 24 hrs by MTT assay; assay type: toxicity, cell-based; details: mrc5, 24 h, 1250 µM
MRC5 [9] = assay: Cytotoxicity against human MRC5 cells assessed as reduction in cell viability at upto 1.25 mM measured after 24 hrs by MTT assay; assay type: toxicity, cell-based; details: mrc5, 24 h, 1250 µM
Pseudomonas aeruginosa [10] = assay: Antibacterial activity against Pseudomonas aeruginosa PAO1; assay type: functional
Pseudomonas aeruginosa [11] = assay: Bactericidal activity against Pseudomonas aeruginosa PAO1; assay type: functional
MRC5 [12] = assay: Cytotoxicity against human MRC5 cells assessed as cell viability at 5 mM measured after 24 hrs by MTT assay; details: mrc5, 24 h, 5000 µM
MRC5 [13] = assay: Cytotoxicity against human MRC5 cells assessed as cell viability at 2.5 mM measured after 24 hrs by MTT assay; details: mrc5, 24 h, 2500 µM
[14] = target: T1, PA-I galactophilic lectin; assay: Binding affinity to Pseudomonas aeruginosa LecA
Pseudomonas aeruginosa [15] = assay: Antibiofilm activity against Pseudomonas aeruginosa PA01 (CIP 104116) assessed as inhibition of biofilm formation measured after 2 to 24 hrs; assay type: functional, organism-based; details: dose 0.08-5 mM, time 2-24 hrs
Pseudomonas aeruginosa [16] = assay: Antibiofilm activity against Pseudomonas aeruginosa PA01 (CIP 104116) assessed as inhibition of biofilm formation at 0.08 to 5 mM measured after 2 to 24 hrs relative to control; assay type: functional; parameters: scale not given: the % may be the effect or the level left; details: dose 0.08-5 mM, time 2-24 hrs

| SMILES | Kd [2] [µM] | deltaG [3] [kJ/mol] | deltaH [4] [kJ/mol] | TdeltaS [5] [kJ/mol] | other results |
| --- | --- | --- | --- | --- | --- |
| CC(C)S[C@@H]1O[C@H](CO)[C@H](O)[C@H](O)[C@H]1O | – | – | – | – | Kd [1]: 32.4 µM |
| C=C(c1ccc(S[C@@H]2O[C@H](CO)[C@H](O)[C@H](O)[C@H]2O)cc1)c1cccc(S[C@H]2O[C@@H](CO)[C@@H](O)[C@@H](O)[C@@H]2O)c1 (single isomer, unassigned) | 0.16 | -38.7 | -90.2 | -51.5 | Activity (Pseudomonas aeruginosa [6]): 90%; log(activity) (Pseudomonas aeruginosa [7]): 1; viability (MRC5 [8]): 91.4%; Activity (MRC5 [9]): Non-Toxic; MIC (Pseudomonas aeruginosa [10]): > 5 mM; MBC (Pseudomonas aeruginosa [11]): > 5 mM; viability (MRC5 [12]): 5.2%; viability (MRC5 [13]): 65.1% |
| Cc1cc(=O)oc2cc(S[C@@H]3O[C@H](CO)[C@H](O)[C@H](O)[C@H]3O)ccc12 | – | – | – | – | Kd [1]: 5.4 µM |
| CC(C)(C)c1cc2c(OCc3cn(CCOCCOCCO[C@@H]4O[C@H](CO)[C@H](O)[C@H](O)[C@H]4O)nn3)c(c1)Cc1cc(C(C)(C)C)cc(c1OCc1cn(CCOCCOCCO[C@@H]3O[C@H](CO)[C@H](O)[C@H](O)[C@H]3O)nn1)Cc1cc(C(C)(C)C)cc(c1OCc1cn(CCOCCOCCO[C@@H]3O[C@H](CO)[C@H](O)[C@H](O)[C@H]3O)nn1)Cc1cc(C(C)(C)C)cc(c1OCc1cn(CCOCCOCCO[C@@H]3O[C@H](CO)[C@H](O)[C@H](O)[C@H]3O)nn1)C2 | – | – | – | – | Kd [14]: 0.176 µM |
| C=C(c1cc(OC)c(OC)c(OC)c1)c1ccc(OC)c(S[C@@H]2O[C@H](CO)[C@H](O)[C@H](O)[C@H]2OC(C)=O)c1 | 6.9 | -29.4 | -36 | -6.6 | – |
| OC[C@H]1O[C@@H](OCc2cn([C@@H]3[C@H](O)[C@@H](O)[C@H](c4cn([C@H]5[C@H](O)[C@@H](O)[C@H](n6cc([C@@H]7O[C@H](CO)[C@@H](n8cc(CO[C@@H]9O[C@H](CO)[C@H](O)[C@H](O)[C@H]9O)nn8)[C@H](O)[C@H]7O)nn6)O[C@@H]5CO)nn4)O[C@@H]3CO)nn2)[C@H](O)[C@@H](O)[C@H]1O | – | – | – | – | Kd [1]: 0.028 µM |
| C=C(c1ccc(S[C@@H]2O[C@H](CO)[C@H](O)[C@H](O)[C@H]2O)cc1)c1ccc2ccccc2c1 | 9 | -28.8 | -35.2 | -6.4 | – |
| COc1ccc(C(=O)c2cc(OC)c(OC)c(OC)c2)cc1S[C@@H]1O[C@H](CO)[C@H](O)[C@H](O)[C@H]1O | 1.02 | -34.2 | -54.5 | -20.3 | Activity (Pseudomonas aeruginosa [15]): Dose-Dependent Effect; Activity (Pseudomonas aeruginosa [16]): 100%; viability (MRC5 [8]): 61.5%; Activity (MRC5 [9]): Non-Toxic; MIC (Pseudomonas aeruginosa [10]): > 5 mM; MBC (Pseudomonas aeruginosa [11]): > 5 mM; viability (MRC5 [12]): 7.1%; viability (MRC5 [13]): 41.1% |

The next lines start with results.

| Kd [2] [µM] | deltaG [3] [kJ/mol] | deltaH [4] [kJ/mol] | TdeltaS [5] [kJ/mol] | SMILES | other results |
| --- | --- | --- | --- | --- | --- |
| 3 | -31.6 | -46.6 | -15 | C=C(c1ccc(OC)cc1)c1ccc(S[C@@H]2O[C@H](CO)[C@H](O)[C@H](O)[C@H]2O)cc1 | – |
| 8.1 | -29.1 | -46.4 | -17.3 | C=C(c1ccc(OC)cc1)c1cccc(S[C@@H]2O[C@H](CO)[C@H](O)[C@H](O)[C@H]2O)c1 | – |
| 11.9 | -28.1 | -42.3 | -14.2 | COc1ccc(S[C@@H]2O[C@H](CO)[C@H](O)[C@H](O)[C@H]2O)cc1 | – |
| 9.2 | -28.7 | -41.2 | -12.5 | O=Cc1ccc(S[C@@H]2O[C@H](CO)[C@H](O)[C@H](O)[C@H]2O)cc1 | – |
| 2.45 | -32 | -49.9 | -17.9 | CC(C)c1ccc(S[C@@H]2O[C@H](CO)[C@H](O)[C@H](O)[C@H]2O)cc1 | – |
